Assay results taken from article PMC8402075, “Synthesis and Antiplasmodial Activity of Bisindolylcyclobutenediones” (Molecules, 2021).
“Also recorded” adds a separate entry of the source. Like-named read-outs stand apart in the source and are kept apart here.

Assays:
[1] = system: P. falciparum (NF54-luc strain) erythrocytic stages; test: Luciferase-based viability screening for antiplasmodial activity; format: cell-based, Plasmodium falciparum; conditions: Plasmodium falciparum; for inhibition at 3 µM: read-out: Inhibition at 3 µM [%]
Experimental: All synthesized new bisindolylcyclobutenediones 2a–2ar and the related bisindolylmaleimide 8 [37] were screened for inhibition of erythrocytic stages of Plasmodium falciparum employing a bioluminescence-based viability assay on transgenic parasites that constitutively express luciferase (PfNF54-luc). Initially, the compounds were evaluated in single-dose test runs (3 µM). If >20% viability inhibition was observed, dose-response curves were generated and IC50 values were calculated (Table 1). […] The bisindolylmaleimide 8 [37] inhibited the parasites in a single-digit micromolar concentration, similar to many of the bisindolylcyclobutenediones in the study. Because the bisindolylcyclobutenediones 2 display a higher degree of structural novelty, only this compound class was further pursued for its antiplasmodial activity. […] These structural features were considered unfavorable for orientations as illustrated in Figure 2 with 2a and Pfmap-2, PfPK5, PfCDPK2, Pflammer, and PfPK7, respectively. However, a structure generated for 2a in PfGSK-3 in which the indole units are oriented perpendicular to each other (Figure 2a) was considered compatible with the indicated substitution pattern. Consequently, the potent antiplasmodial derivatives 2k, 2ad, and 2ae were tested in a kinase Glo assay for inhibition of recombinant PfGSK-3. […] For the compounds with particularly potent antiplasmodial activity, cytotoxicity was also determined using the human cell line THP-1 to assess selectivity with respect to parasite cells (Table 2).
Screening for the antiplasmodial activity of test compounds was performed by luciferase-based viability assays as reported previously. In brief, asexual erythrocytic stages of transgenic NF54-luc P. falciparum were cultured as described elsewhere. Parasite cultures with parasitaemia of 0.5–1% were incubated in the presence of 3 µM test compounds for 48 h. After the subsequent addition of Bright-Glo substrate solution (Promega, Madison, WI), the resulting luminescence was measured. Untreated cultures (0.01% DMSO) were used as negative controls. Experiments were performed in triplicate and were repeated as a whole at least twice. Blasticidin (Sigma-Aldrich, St. Louis, MO, USA) was included as a positive control.

human THP-1 cell line = test: Cytotoxicity assay on human THP-1 cell line (Alamar Blue); format: cell-based; conditions: for Selectivity Index (SI) = IC50, THP-1/IC50, Pf: THP-1 versus P. falciparum NF54-luc; for IC50: human THP-1 cell line, 48 h, Alamar Blue
Experimental: The cytotoxicity of selected antiplasmodial bisindolylcyclobutenediones was determined against THP-1 cells following a protocol described previously. In brief, THP-1 cells were incubated with test compounds in serial compound dilutions in the presence of 0.01% DMSO at 37 °C. After 48 h, Alamar Blue was added, and after 4 h the fluorescence was read (λex = 544 nm, λem = 590 nm) using a microplate reader. THP-1 cells in wells containing medium plus 0.01% DMSO served as negative controls. Experiments were performed in triplicate and were repeated as a whole at least twice.

recombinant PfGSK-3 = target: T1, recombinant PfGSK-3 (Plasmodium falciparum, UniProt O77344); test: PfGSK-3 inhibition assay (KinaseGlo Plus); format: biochemical; conditions: tested up to a concentration of 10 µM, kinase Glo assay
T1 construct: 6xHis (N, cleaved yes); GST (N, cleaved yes); made in house; host or cells: E. coli BL21 (DE3)-RIL
T1 sequence (O77344 entry or part of it): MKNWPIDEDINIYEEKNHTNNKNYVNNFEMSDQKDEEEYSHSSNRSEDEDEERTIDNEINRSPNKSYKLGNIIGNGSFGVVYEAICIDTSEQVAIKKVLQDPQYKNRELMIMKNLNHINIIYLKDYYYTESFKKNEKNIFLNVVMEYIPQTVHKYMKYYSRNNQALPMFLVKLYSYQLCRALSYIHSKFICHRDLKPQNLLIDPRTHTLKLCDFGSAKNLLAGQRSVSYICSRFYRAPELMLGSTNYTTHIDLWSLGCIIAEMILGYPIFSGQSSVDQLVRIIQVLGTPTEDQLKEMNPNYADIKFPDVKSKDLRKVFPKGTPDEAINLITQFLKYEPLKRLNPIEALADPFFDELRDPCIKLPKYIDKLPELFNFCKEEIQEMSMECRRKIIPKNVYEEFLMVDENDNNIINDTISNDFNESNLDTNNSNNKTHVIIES
Experimental: PfGSK-3 was produced as published before. In brief, PfGSK-3 was cloned into pOPIN J expression vector [57] which was transformed into E. coli BL21 (DE3)-RIL. Expression of recombinant 6xHis-GST-PfGSK-3 was induced by incubation with isopropyl β-D-1-thiogalactopyranoside (IPTG). The recombinant protein was purified by affinity chromatography using glutathione resin and elution by digestion with human rhinovirus 3C protease.
The PfGSK-3 inhibition assay was carried out using the commercial KinaseGlo Plus assay (KinaseGlo Plus, Promega) as described before. In brief, the kinase and a corresponding substrate (GS-1 substrate, Promega) in the presence of ATP were used to perform substrate phosphorylation. Subsequently, luminescence is generated utilizing luciferase which is a component of the KinaseGlo Reagent. The intensity of the luminescence signal corresponds to the amount of remaining ATP in the reaction mixture. For the investigation, potential kinase inhibitors were dissolved in DMSO and were added directly to the kinase reaction. The final DMSO concentration in the kinase reaction was at most 1%. As the negative control, 1% DMSO without test compound was measured. A control reaction without kinase was measured simultaneously. The difference between kinase reaction and control reaction corresponds to the kinase activity.

[2] = NF54, 48 h, read-out: IC50 [µM], concentration for 50% inhibition of P. falciparum (NF54-luc strain) erythrocytic stages

| SMILES | IC50 [1, 2] [µM] | inhibition at 3 µM ([1]; NF54, 48 h) [%] | IC50 ([1]; NF54, read-out: IC50, Pf [µM]) [µM] | Selectivity Index (SI) = IC50, THP-1/IC50, Pf (human THP-1 cell line) | IC50 (human THP-1 cell line) [nM] | Inhibition of recombinant PfGSK-3 (recombinant PfGSK-3) |
| --- | --- | --- | --- | --- | --- | --- |
| COc1ccc2[nH]cc(-c3c(-c4c[nH]c5ccc(Br)cc45)c(=O)c3=O)c2c1 [2ad, 3-(5-Bromo-1H-indol-3-yl)-4-(5-methoxy-1H-indol-3-yl)cyclobut-3-ene-1,2-dione] | 0.47 | 98.8 ± 0.7 | 0.47 | 30 | 14100 | failed to show kinase inhibitory activity; also recorded: inactive; also recorded: did not inhibit PfGSK-3 |
| COc1ccc2[nH]cc(-c3c(-c4c[nH]c5ccc(I)cc45)c(=O)c3=O)c2c1 [2ae, 3-(5-Iodo-1H-indol-3-yl)-4-(5-methoxy-1H-indol-3-yl)cyclobut-3-en-1,2-dione] | 0.64 |  | 0.64 | 23 | 14500 | failed to show kinase inhibitory activity; also recorded: inactive; also recorded: did not inhibit PfGSK-3 |
| CN(C)CCCn1cc(-c2c(-c3c[nH]c4ccccc34)c(=O)c2=O)c2ccccc21 [2k, 3-{1-[3-(Dimethylamino)propyl]-1H-indol-3-yl}-4-(1H-indol-3-yl)cyclobut-3-ene-1,2-dione] | 0.376 | 98.1 ± 1.8 | 0.38 | 34 | 12800 | failed to show kinase inhibitory activity; also recorded: inactive; also recorded: did not inhibit PfGSK-3 |
| O=c1c(-c2c[nH]c3ccccc23)c(-c2c[nH]c3ccc(I)cc23)c1=O [2r, 3-(1H-Indol-3-yl)-4-(5-iodo-1H-indol-3-yl)cyclobut-3-ene-1,2-dione] | 0.915 |  | 0.92 | 7.9 | 7250 |  |
| Cn1cc(-c2c(-c3c(-c4ccccc4)[nH]c4ccccc34)c(=O)c2=O)c2ccccc21 [2u, 3-(1-Methyl-1H-indol-3-yl)-4-(2-phenyl-1H-indol-3-yl)cyclobut-3-ene-1,2-dione] | 1.72 |  | 1.72 | 1.2 | 2100 |  |
| Cc1[nH]c2ccccc2c1-c1c(-c2cn(C)c3ccccc23)c(=O)c1=O [2y, 3-(1-Methyl-1H-indol-3-yl)-4-(2-methyl-1H-indol-3-yl)cyclobut-3-ene-1,2-dione] | 2.67 |  | 2.67 | 3.1 | 8400 |  |
